ChEMBL document CHEMBL1156182 (Bioorg Med Chem Lett, 2010)
Activity calls are given as the source filed them. The calls are words filed in the database; no cut-off is given here.

Key:
[1] = biological target: T1, Peroxisome proliferator-activated receptor alpha (Homo sapiens) (UniProt Q07869); assay: Transactivation of human PPARalpha LBD expressed in african green monkey Cos7 cells co-transfected with fused GAL4-DBD at 10 uM after 14 hrs by Dual-Glo Luciferase reporter gene assay; format: cell-based; conditions: COS-7
T1 sequence (whole entry): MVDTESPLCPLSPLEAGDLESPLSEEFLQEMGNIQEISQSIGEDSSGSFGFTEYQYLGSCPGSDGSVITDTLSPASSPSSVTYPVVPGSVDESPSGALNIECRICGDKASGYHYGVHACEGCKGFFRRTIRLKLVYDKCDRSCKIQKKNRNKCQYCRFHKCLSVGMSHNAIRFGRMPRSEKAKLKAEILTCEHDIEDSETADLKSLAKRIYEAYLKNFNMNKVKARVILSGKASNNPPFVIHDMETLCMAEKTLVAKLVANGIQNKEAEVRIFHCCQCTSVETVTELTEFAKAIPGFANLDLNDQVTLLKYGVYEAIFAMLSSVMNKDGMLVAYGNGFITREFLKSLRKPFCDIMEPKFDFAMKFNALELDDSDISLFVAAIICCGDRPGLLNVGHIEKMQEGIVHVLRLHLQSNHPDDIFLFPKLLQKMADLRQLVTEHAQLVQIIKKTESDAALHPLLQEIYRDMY

[2] = biological target: T2, Peroxisome proliferator-activated receptor gamma (Homo sapiens, UniProt P37231)
T2 sequence (P37231 whole entry): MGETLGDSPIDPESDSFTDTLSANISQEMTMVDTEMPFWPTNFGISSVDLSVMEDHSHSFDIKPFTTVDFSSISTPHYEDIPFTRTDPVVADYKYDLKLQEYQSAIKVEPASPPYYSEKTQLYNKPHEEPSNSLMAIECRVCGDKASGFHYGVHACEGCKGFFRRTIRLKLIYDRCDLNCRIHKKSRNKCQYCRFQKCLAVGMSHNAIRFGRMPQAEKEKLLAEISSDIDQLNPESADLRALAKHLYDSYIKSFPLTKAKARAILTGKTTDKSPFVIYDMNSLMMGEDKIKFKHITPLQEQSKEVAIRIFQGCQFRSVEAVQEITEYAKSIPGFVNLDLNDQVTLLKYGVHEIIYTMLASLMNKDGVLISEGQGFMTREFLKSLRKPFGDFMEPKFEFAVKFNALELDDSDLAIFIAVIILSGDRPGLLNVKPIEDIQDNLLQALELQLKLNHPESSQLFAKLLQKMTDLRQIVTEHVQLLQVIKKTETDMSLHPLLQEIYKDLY

[3] = biological target: T3, Peroxisome proliferator-activated receptor gamma (Homo sapiens) (UniProt P37231); assay: Agonist activity at human PPARgamma LBD expressed in african green monkey Cos7 cells co-transfected with fused GAL4-DBD after 14 hrs by Dual-Glo Luciferase reporter gene transactivation assay; format: functional, cell-based; conditions: COS-7
T3 sequence (whole entry): T2 sequence (P37231 whole entry)

[4] = biological target: T3, Peroxisome proliferator-activated receptor gamma (Homo sapiens); assay: Transactivation of human PPARgamma LBD expressed in african green monkey Cos7 cells co-transfected with fused GAL4-DBD at 10 uM after 14 hrs by Dual-Glo Luciferase reporter gene assay; format: cell-based; conditions: COS-7
[5] = biological target: T3, Peroxisome proliferator-activated receptor gamma (Homo sapiens); assay: Transactivation of human PPARgamma LBD expressed in african green monkey Cos7 cells co-transfected with fused GAL4-DBD after 14 hrs by Dual-Glo Luciferase reporter gene assay; conditions: COS-7

Row | SMILES | Activity [1] | EC50 [2] | Activity [3] | Activity [4] | Activity [5]
1 | O=C(O)C(Sc1nc(Cl)cc(Nc2ccc(Cl)cc2)n1)c1cccc2ccccc12 (stereo not given) | inactive | 9 µM | – | – | –
2 | O=C(O)C(Sc1nc(Cl)cc(Nc2ccc3ccccc3c2)n1)c1cccc2ccccc12 (stereo not given) | inactive | 6.9 µM | – | – | –
3 | O=C(O)C(Sc1nc(Cl)cc(Nc2ccc3c(c2)CCC3)n1)c1cccc2ccccc12 (stereo not given) | inactive | 6.8 µM | – | – | –
4 | Cc1cccc(Nc2cc(Cl)nc(SC(C(=O)O)c3ccc(-c4ccccc4)c4ccccc34)n2)c1C (stereo not given) | inactive | 4.5 µM | – | – | –
5 | O=C(O)C(Sc1nc(Cl)cc(Nc2ccc(F)cc2)n1)c1cccc2ccccc12 (stereo not given) | inactive | 13 µM | – | – | –
6 | O=C(O)C(Sc1nc(Cl)cc(NCCCc2ccccc2)n1)c1cccc2ccccc12 (stereo not given) | inactive | 8.9 µM | – | – | –
7 | O=C(O)C(Sc1nc(Cl)cc(NCCc2ccccc2)n1)c1cccc2ccccc12 (stereo not given) | inactive | 10.8 µM | – | – | –
8 | Cc1ccc(Nc2cc(Cl)nc(SC(C(=O)O)c3cccc4ccccc34)n2)cc1C (stereo not given) | inactive | 7.8 µM | – | – | –
9 | CCc1ccc(CCOc2ccc(CC3SC(=O)NC3=O)cc2)nc1 (stereo not given) | inactive | – | – | – | –
10 | CC(C)c1ccc(Nc2cc(Cl)nc(SC(C(=O)O)c3cccc4ccccc34)n2)cc1 (stereo not given) | inactive | 7.6 µM | – | – | –

Continued, values first:

Row | Activity [1] | EC50 [2] | Activity [3] | Activity [4] | Activity [5] | SMILES
11 | inactive | 6.2 µM | inactive | – | – | Cc1cccc(Nc2cc(Cl)nc(SC(C(=O)O)c3cccc4ccccc34)n2)c1C (stereo not given)
12 | inactive | 8.9 µM | – | – | – | CC(C)CCNc1cc(Cl)nc(SC(C(=O)O)c2cccc3ccccc23)n1 (stereo not given)
13 | inactive | – | – | inactive | inactive | CCCCNc1cc(Cl)nc(SC(C(=O)O)c2cccc3ccccc23)n1 (stereo not given)
14 | inactive | 7.3 µM | – | – | – | O=C(O)C(Sc1nc(Cl)cc(Nc2cccc(Cl)c2)n1)c1cccc2ccccc12 (stereo not given)
15 | – | 3.6 µM | – | – | – | CCCCCCC(Sc1nc(Cl)cc(Nc2cccc(C)c2C)n1)C(=O)O (stereo not given)
